Test results reported in US5807742A, “Neurokinin receptor cell lines” (Merrell Pharmaceuticals Inc., priority 1996, dated 1998).
Starred links: 1 amine or outer side, 2 acyl side, 3 side chain; linkers in the order of their positions; H or OH if unused. Non-standard residues stand in square brackets, D forms with d. Residues, ends and D or L forms follow the SMILES beside them. NMeF = CN[C@@H](Cc1ccccc1)C(=O)O; Suc = O=C(CCC(=O)[*:2])[*:1]

Key:
[1] = target: T1, NKA receptor (hamster urinary bladder) (Mesocricetus auratus, UniProt P51144); assay: [125I]NKA receptor binding in hamster urinary bladder membranes (standard control); conditions: FIG. 4
T1 construct: the hamster urinary bladder membranes were run as a standard control; from tissue; host or cells: hamster urinary bladder membranes
T1 sequence (P51144 1-384): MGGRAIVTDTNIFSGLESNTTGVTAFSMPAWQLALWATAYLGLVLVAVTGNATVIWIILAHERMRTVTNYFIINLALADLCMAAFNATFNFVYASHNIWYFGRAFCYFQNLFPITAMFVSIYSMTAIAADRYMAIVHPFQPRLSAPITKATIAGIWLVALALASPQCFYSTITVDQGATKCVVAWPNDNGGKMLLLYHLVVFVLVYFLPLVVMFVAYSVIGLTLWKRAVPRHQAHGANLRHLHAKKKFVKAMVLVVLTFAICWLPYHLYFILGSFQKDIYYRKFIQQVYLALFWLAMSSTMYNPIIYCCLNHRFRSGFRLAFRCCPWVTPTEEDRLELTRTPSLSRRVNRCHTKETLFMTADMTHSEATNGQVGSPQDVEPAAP
Experimental: (§1) The homogenate is centrifuged at 48,000×g for 10 min at 4° C.

neurokinin A receptor [2] = target: T2, neurokinin A receptor (Bos taurus, UniProt P05363); assay: [3H]inositol-1-phosphate (IP1) accumulation in SKLKB82#3 cells; format: cell-based, bovine
T2 construct: expressed in transfected cells
T2 sequence (P05363 1-384): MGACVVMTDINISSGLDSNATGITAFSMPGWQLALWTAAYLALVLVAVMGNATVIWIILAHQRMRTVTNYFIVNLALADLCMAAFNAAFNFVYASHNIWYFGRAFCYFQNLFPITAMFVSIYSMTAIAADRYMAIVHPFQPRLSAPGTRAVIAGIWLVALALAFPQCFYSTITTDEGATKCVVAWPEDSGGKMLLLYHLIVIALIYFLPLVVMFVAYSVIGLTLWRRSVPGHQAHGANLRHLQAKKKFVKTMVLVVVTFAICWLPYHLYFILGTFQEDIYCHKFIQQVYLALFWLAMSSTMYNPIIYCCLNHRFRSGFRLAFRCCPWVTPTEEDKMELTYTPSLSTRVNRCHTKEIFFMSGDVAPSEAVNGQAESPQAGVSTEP
Experimental: The culture was incubated for 22-24 hours under the same conditions. After this incubation, the cells were washed once with 1.0 ml of IMDM for ten minutes and incubated for ten minutes in 0.2 ml of incubation buffer (IMDM with 10 mM LiCl, 40 ug/ml bacitracin, 4 ug/ml leupeptin, and 4 ug/ml chymostatin). […] The reaction was terminated in 60 minutes by aspiring the media and adding 0.5 ml methanol. The cells were scraped from the wells and placed into chloroform resistant tubes. A second aliquot of 0.5 ml methanol was used to collect the remaining cells. The cell suspensions were mixed with 1.0 ml chloroform and 0.5 ml double distilled water to obtain a two phase separation. After centrifugation at 4200g for 10 minutes, 0.9 ml aliquots of the upper phase were added to 2.0 ml of distilled water and mixed. This mixture was passed through poly prep columns (Bio-Rad Laboratories, Richmond, Calif.) which consisted of 2.0 ml slurry of ten percent anion exchange resin in formate form (AG1-X8, 100-200 mesh, Bio-Rad Laboratories, Richmond, Calif.). The columns were washed three times with 5.0 ml of distilled water and two times with 5.0 ml of 5 mM sodium tetraborate/60 mM sodium formate (Baker, Phillipsburg, N.J.). […] The eluate was mixed with nine ml of Aquamix (West Chem., San Diego, Calif.) and the radioactivity was counted.

neurokinin A receptor [3] = target: T2, neurokinin A receptor; assay: [125I]NKA receptor binding (saturation/Scatchard and competition) in B82 cells transfected with pSKR56S cDNA (SKLKB82#n); set-up: species or system bovine; conditions: SKLKB82#3 cells; FIG. 4
Experimental: as §1

CSCC[C@H](NC(=O)[C@H](CC(C)C)NC(=O)CNC(=O)[C@H](Cc1ccccc1)N(C)C(=O)[C@H](Cc1ccccc1)NC(=O)[C@H](CC(=O)O)NC(=O)CCC(=O)O)C(N)=O [senktide] (Suc-DF[NMeF]GLM-NH2)
potency rank-order, inhibition of [125I]NKA receptor binding (KI) [1]: followed by Nle^10 NKA (4-10), substance P, and senktide
EC50 (neurokinin A receptor [2]): ~1300 µM
potency rank-order, inhibition of [125I]NKA receptor binding (KI) (neurokinin A receptor [3]): followed by Nle^10 NKA (4-10), substance P, and senktide
